For this experiment, the target named is T1, TFAM (mitochondrial transcription factor A) (Homo sapiens, UniProt Q00059).
T1 construct: endogenous protein in intact human HepG2 cells
T1 sequence (Q00059 43-246): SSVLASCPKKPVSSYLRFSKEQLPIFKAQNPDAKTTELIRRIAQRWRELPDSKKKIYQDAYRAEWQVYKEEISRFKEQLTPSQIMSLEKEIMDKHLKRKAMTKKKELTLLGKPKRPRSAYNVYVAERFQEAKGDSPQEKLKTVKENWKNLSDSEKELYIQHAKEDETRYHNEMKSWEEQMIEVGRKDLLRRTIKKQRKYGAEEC
In words: cellular thermal shift assay (CETSA), Western blot. The experiment is classed as cell-based. Conditions: intact cells incubated 2 h with or without OA, heated 3 min at 43 to 70 °C; rightward shift of melting curve. (In general: In western blotting, separated proteins are transferred to a membrane and probed.)

For the molecule `COc1c(O)cc2oc(-c3ccccc3)cc(=O)c2c1O` [Oroxylin A], the thermal shift entry is “thermal shift assays showed a significant rightward shift in the thermal melting curve upon OA administration”.

(Values after publication PMC11676196, “Inhibition of TFAM-Mediated Mitophagy by Oroxylin A Restored Sorafenib Sensitivity Under Hypoxia Conditions in HepG2 Cells” (Pharmaceuticals, 2024).)
